According to patent US20230099441A1, “HETEROCYCLIC COMPOUND, APPLICATION THEREOF, AND COMPOSITION CONTAINING SAME” (GenEros Biopharma Ltd., priority 2019, published 2023):

Columns and labels:
[1] = Body weight of animals in the mouse collagen-induced arthritis model; assay type: in vivo; details: oral, X8 1 mg/kg once a day; for body weight of animals, Mean/g: mean of group, Methotrexate 0.25 mg/kg once a week, Tofacitinib 5 mg/kg once a day
Text: (§1) Sixty male DBA/1J mice (9-10 weeks old, H-2q haplotype) were acclimatized in a standard animal room for one week and then randomly divided into 5 groups. Except for the healthy control group, the rest were inoculated with collagen antigen injection, and then received oral treatment with different compounds. The brief procedure was to mix bovine type II collagen (purchased from Chondrex, 20021) with an equal volume of Freund's complete adjuvant (purchased from Sigma, F5881), the concentration was 4 mg/ml, and it was treated with a homogenizer at a speed of 20,000 revolutions/min for 5-10 minutes. A needle was inserted between the left side of the dorsal caudal artery and the lateral vein of the mouse, and 50 microliters of modeling agent was injected subcutaneously. 21 days after the first injection, another injection was injected between the right side of the dorsal tail artery and the lateral vein of the mouse. After the first injection, oral administration was started. The drug was formulated with […] PEG300, and it was prepared for immediate use. […] The total score was between 0-12 points, and the swelling of the foot after vaccination was not calculated.

[2] = test system: mouse collagen-induced arthritis model; experiment: Therapeutic efficacy in a mouse collagen-induced arthritis model (clinical score); assay type: in vivo; details: mean of group, total score 0-12, oral, Methotrexate 0.25 mg/kg once a week, Tofacitinib 5 mg/kg once a day, X8 1 mg/kg once a day
Text: Example of Effect 2: Evaluation of the Therapeutic Efficacy of X8 Compound in a Mouse Collagen-Induced Arthritis Model
as §1

C[C@@H]1CCN(C(=O)CC#N)C[C@@H]1N(C)c1ncnc2[nH]ccc12 [Tofacitinib, tofacitinib]
body weight of animals, Mean/g ([1]; day 0): 21.94 g | body weight of animals, Mean/g ([1]; day 4): 22.41 g | body weight of animals, Mean/g ([1]; day 7): 22.76 g | body weight of animals, Mean/g ([1]; day 11): 22.79 g | body weight of animals, Mean/g ([1]; day 14): 22.55 g | body weight of animals, Mean/g ([1]; day 18): 22.87 g | body weight of animals, Mean/g ([1]; day 20): 23.20 g | body weight of animals, Mean/g ([1]; day 25): 22.48 g | body weight of animals, Mean/g ([1]; day 28): 22.46 g | body weight of animals, Mean/g ([1]; day 31): 22.37 g | body weight of animals, Mean/g ([1]; day 33): 22.65 g | body weight of animals, Mean/g ([1]; day 35): 22.43 g | body weight of animals, Mean/g ([1]; day 38): 22.30 g | body weight of animals, Mean/g ([1]; day 40): 20.90 g | body weight of animals, Mean/g ([1]; day 42): 22.13 g | body weight of animals, Mean/g ([1]; day 45): 22.30 g | effect on body weight of animals (in words) ([1]; whole experiment, days 0-45, methotrexate 0.25 mg/kg once a week, tofacitinib 5 mg/kg once a day): weight loss in the late stage of the experiment | clinical score of arthritis, Mean (the larger the value, the more severe the disease) ([2]; day 0): 0.00 | clinical score of arthritis, Mean (the larger the value, the more severe the disease) ([2]; day 21): 0.00 | clinical score of arthritis, Mean (the larger the value, the more severe the disease) ([2]; day 25): 0.00 | clinical score of arthritis, Mean (the larger the value, the more severe the disease) ([2]; day 28): 0.81 | clinical score of arthritis, Mean (the larger the value, the more severe the disease) ([2]; day 31): 1.83 | clinical score of arthritis, Mean (the larger the value, the more severe the disease) ([2]; day 33): 2.19 | clinical score of arthritis, Mean (the larger the value, the more severe the disease) ([2]; day 35): 2.52 | clinical score of arthritis, Mean (the larger the value, the more severe the disease) ([2]; day 38): 2.77 | clinical score of arthritis, Mean (the larger the value, the more severe the disease) ([2]; day 40): 2.62 | clinical score of arthritis, Mean (the larger the value, the more severe the disease) ([2]; day 42): 3.14 | clinical score of arthritis, Mean (the larger the value, the more severe the disease) ([2]; day 45): 2.90
